Results: US20080200454A1, “CARBON-LINKED TETRAHYDRO-PYRAZOLO-PYRIDINE MODULATORS OF CATHEPSIN S” (priority 2007, published 2008)
Like-named read-outs stand apart in the source and are kept apart here.

Molecular target: Recombinant human cathepsin S (CatS) (Homo sapiens, UniProt P25774)
Test: Recombinant human cathepsin S (CatS) inhibition assay, fluorogenic substrate Z-Valine-Valine-Arginine-AMC;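 further: Baculovirus-expressed CatS in pH 5.0 sodium acetate buffer with DTT and NaCl, fluorescence read each minute over 20 min, inhibition derived from rate slope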

Recombinant human cathepsin S (CatS), sequence (P25774 115-331): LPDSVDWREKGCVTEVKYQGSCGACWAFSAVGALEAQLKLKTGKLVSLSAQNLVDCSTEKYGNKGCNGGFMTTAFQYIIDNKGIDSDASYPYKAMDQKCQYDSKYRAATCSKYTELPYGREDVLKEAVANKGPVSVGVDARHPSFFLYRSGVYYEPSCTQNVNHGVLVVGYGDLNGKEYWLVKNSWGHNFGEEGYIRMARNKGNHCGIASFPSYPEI

SMILES	IC50 [nM]	IC50 (CatS IC50) [nM]
CS(=O)(=O)N1CCc2c(c(-c3ccc(Cl)c(C#Cc4ccc(Cl)cc4)c3)nn2CC(O)CN2CCC3(CCNC3=O)CC2)C1 (centres unmarked) [Example 298, 8-{3-[3-{4-Chloro-3-[(4-chlorophenyl)ethynyl]phenyl}-5-(methylsulfonyl)-4,5,6,7-tetrahydro-1H-pyrazolo[4,3-c]pyridin-1-yl]-2-hydroxypropyl}-2,8-diazaspiro[4.5]decan-1-one]	50	–
CS(=O)(=O)N1CCc2c(c(-c3ccc(Cl)c(C#CCCO)c3)nn2CCCN2CCOCC2)C1 [Example 299, 4-{2-Chloro-5-[5-(methylsulfonyl)-1-(3-morpholin-4-ylpropyl)-4,5,6,7-tetrahydro-1H-pyrazolo[4,3-c]pyridin-3-yl]phenyl}but-3-yn-1-ol]	4800	–
CS(=O)(=O)N1CCc2c(c(-c3ccc(Cl)c(CCCCO)c3)nn2CCCN2CCOCC2)C1 [Example 300, 4-{2-Chloro-5-[5-(methylsulfonyl)-1-(3-morpholin-4-ylpropyl)-4,5,6,7-tetrahydro-1H-pyrazolo[4,3-c]pyridin-3-yl]phenyl}butan-1-ol]	9200	–
CS(=O)(=O)N1CCc2c(c(-c3ccc(Cl)c(CCCCCO)c3)nn2CCCN2CCOCC2)C1 [Example 301, 5-{2-Chloro-5-[5-(methylsulfonyl)-1-(3-morpholin-4-ylpropyl)-4,5,6,7-tetrahydro-1H-pyrazolo[4,3-c]pyridin-3-yl]phenyl}pentan-1-ol]	7050	–
CS(=O)(=O)N1CCc2c(c(-c3ccc(Cl)c(CCCO)c3)nn2CCCN2CCOCC2)C1 [Example 302, 3-{2-Chloro-5-[5-(methylsulfonyl)-1-(3-morpholin-4-ylpropyl)-4,5,6,7-tetrahydro-1H-pyrazolo[4,3-c]pyridin-3-yl]phenyl}propan-1-ol]	11500	–
CS(=O)(=O)N1CCc2c(c(-c3ccc(Cl)c(C#CCN)c3)nn2CCCN2CCOCC2)C1 [Example 303, 3-{2-Chloro-5-[5-(methylsulfonyl)-1-(3-morpholin-4-ylpropyl)-4,5,6,7-tetrahydro-1H-pyrazolo[4,3-c]pyridin-3-yl]phenyl}prop-2-yn-1-amine]	> 20000	–
CS(=O)(=O)N1CCc2c(c(-c3ccc(Cl)c(CCCN)c3)nn2CCCN2CCOCC2)C1 [Example 304, 3-{2-Chloro-5-[5-(methylsulfonyl)-1-(3-morpholin-4-ylpropyl)-4,5,6,7-tetrahydro-1H-pyrazolo[4,3-c]pyridin-3-yl]phenyl}propan-1-amine]	17000	–
CS(=O)(=O)N1CCc2c(c(-c3ccc(C(F)(F)F)c(C#CCNS(=O)(=O)c4ccccc4)c3)nn2CC(O)CN2CCOCC2)C1 (centres unmarked) [Example 305, N-(3-{5-[1-(2-Hydroxy-3-morpholin-4-ylpropyl)-5-(methylsulfonyl)-4,5,6,7-tetrahydro-1H-pyrazolo[4,3-c]pyridin-3-yl]-2-(trifluoromethyl)phenyl}prop-2-yn-1-yl)benzenesulfonamide]	3950	–
CS(=O)(=O)N1CCc2c(c(-c3ccc(C(F)(F)F)c(CCCNS(=O)(=O)c4ccccc4)c3)nn2CC(O)CN2CCOCC2)C1 (centres unmarked) [Example 306, N-(3-{5-[1-(2-Hydroxy-3-morpholin-4-ylpropyl)-5-(methylsulfonyl)-4,5,6,7-tetrahydro-1H-pyrazolo[4,3-c]pyridin-3-yl]-2-(trifluoromethyl)phenyl}propyl)benzenesulfonamide]	3220	–
CS(=O)(=O)N1CCc2c(c(-c3ccc(Cl)c(C#CCN)c3)nn2CCCN2CCC(N3CCCC3=O)CC2)C1 [Example 307, 1-[1-(3-{3-[3-(3-Aminoprop-1-yn-1-yl)-4-chlorophenyl]-5-(methylsulfonyl)-4,5,6,7-tetrahydro-1H-pyrazolo[4,3-c]pyridin-1-yl}propyl)piperidin-4-yl]pyrrolidin-2-one]	4650	–
CS(=O)(=O)N1CCc2c(c(-c3ccc(Cl)c(CCCN)c3)nn2CCCN2CCC(N3CCCC3=O)CC2)C1 [Example 308, 1-[1-(3-{3-[3-(3-Aminopropyl)-4-chlorophenyl]-5-(methylsulfonyl)-4,5,6,7-tetrahydro-1H-pyrazolo[4,3-c]pyridin-1-yl}propyl)piperidin-4-yl]pyrrolidin-2-one]	5650	–
COC(=O)c1ccccc1S(=O)(=O)NCCCc1cc(-c2nn(CCCN3CCC(N4CCCC4=O)CC3)c3c2CN(S(C)(=O)=O)CC3)ccc1Cl [Example 309, Methyl 2-{[(3-{2-chloro-5-[5-(methylsulfonyl)-1-{3-[4-(2-oxopyrrolidin-1-yl)piperidin-1-yl]propyl}-4,5,6,7-tetrahydro-1H-pyrazolo[4,3-c]pyridin-3-yl]phenyl}propyl)amino]sulfonyl}benzoate]	320	–
CS(=O)(=O)N1CCc2c(c(-c3ccc(Cl)c(C#CCO)c3)nn2CCCN2CCC(N3CCCC3=O)CC2)C1 [Example 310, 1-[1-(3-{3-[4-Chloro-3-(3-hydroxyprop-1-yn-1-yl)phenyl]-5-(methylsulfonyl)-4,5,6,7-tetrahydro-1H-pyrazolo[4,3-c]pyridin-1-yl}propyl)piperidin-4-yl]pyrrolidin-2-one]	2120	–
CS(=O)(=O)N1CCc2c(c(-c3ccc(Cl)c(CCCCO)c3)nn2CCCN2CCC(N3CCCC3=O)CC2)C1 [Example 311, 1-[1-(3-{3-[4-Chloro-3-(4-hydroxybutyl)phenyl]-5-(methylsulfonyl)-4,5,6,7-tetrahydro-1H-pyrazolo[4,3-c]pyridin-1-yl}propyl)piperidin-4-yl]pyrrolidin-2-one]	1350	–
CN(C)CCCCc1cc(-c2nn(CCCN3CCC(N4CCCC4=O)CC3)c3c2CN(S(C)(=O)=O)CC3)ccc1Cl [Example 312, 1-(1-{3-[3-{4-Chloro-3-[4-(dimethylamino)butyl]phenyl}-5-(methylsulfonyl)-4,5,6,7-tetrahydro-1H-pyrazolo[4,3-c]pyridin-1-yl]propyl}piperidin-4-yl)pyrrolidin-2-one]	5620	–
CS(=O)(=O)N1CCc2c(c(-c3ccc(Cl)c(CCCO)c3)nn2CCCN2CCC(N3CCCC3=O)CC2)C1 [Example 313, 1-[1-(3-{3-[4-Chloro-3-(3-hydroxypropyl)phenyl]-5-(methylsulfonyl)-4,5,6,7-tetrahydro-1H-pyrazolo[4,3-c]pyridin-1-yl}propyl)piperidin-4-yl]pyrrolidin-2-one]	1960	–
CN(C)CCCc1cc(-c2nn(CCCN3CCC(N4CCCC4=O)CC3)c3c2CN(S(C)(=O)=O)CC3)ccc1Cl [Example 314, 1-(1-{3-[3-{4-Chloro-3-[3-(dimethylamino)propyl]phenyl}-5-(methylsulfonyl)-4,5,6,7-tetrahydro-1H-pyrazolo[4,3-c]pyridin-1-yl]propyl}piperidin-4-yl)pyrrolidin-2-one]	3660	–
CNCc1ccc(C#Cc2cc(-c3nn(CCCN4CCOCC4)c4c3CN(S(C)(=O)=O)CC4)ccc2Cl)cc1 [Example 315, 1-[4-({2-Chloro-5-[5-(methylsulfonyl)-1-(3-morpholin-4-ylpropyl)-4,5,6,7-tetrahydro-1H-pyrazolo[4,3-c]pyridin-3-yl]phenyl}ethynyl)phenyl]-N-methylmethanamine]	1360	–
CS(=O)(=O)N1CCc2c(c(-c3ccc(Cl)c(C#Cc4ccc(CNCCc5ccccc5)cc4)c3)nn2CCCN2CCOCC2)C1 [Example 316, N-{[4-({2-Chloro-5-[5-(methylsulfonyl)-1-(3-morpholin-4-ylpropyl)-4,5,6,7-tetrahydro-1H-pyrazolo[4,3-c]pyridin-3-yl]phenyl}ethynyl)phenyl]methyl}-2-phenylethanamine]	580	–
CCN(CC)Cc1ccc(C#Cc2cc(-c3nn(CCCN4CCOCC4)c4c3CN(S(C)(=O)=O)CC4)ccc2Cl)cc1 [Example 317, N-{[4-({2-Chloro-5-[5-(methylsulfonyl)-1-(3-morpholin-4-ylpropyl)-4,5,6,7-tetrahydro-1H-pyrazolo[4,3-c]pyridin-3-yl]phenyl}ethynyl)phenyl]methyl}-N-ethylethanamine]	–	2710
CC(C)CNCc1ccc(C#Cc2cc(-c3nn(CCCN4CCOCC4)c4c3CN(S(C)(=O)=O)CC4)ccc2Cl)cc1 [Example 318, N-{[4-({2-Chloro-5-[5-(methylsulfonyl)-1-(3-morpholin-4-ylpropyl)-4,5,6,7-tetrahydro-1H-pyrazolo[4,3-c]pyridin-3-yl]phenyl}ethynyl)phenyl]methyl}-2-methylpropan-1-amine]	–	1150
CS(=O)(=O)N1CCc2c(c(-c3ccc(Cl)c(C#Cc4ccc(-c5nc6ccccc6[nH]5)cc4)c3)nn2CCCN2CCOCC2)C1 [Example 320, 3-(3-{[4-(1H-Benzimidazol-2-yl)phenyl]ethynyl}-4-chlorophenyl)-5-(methylsulfonyl)-1-(3-morpholin-4-ylpropyl)-4,5,6,7-tetrahydro-1H-pyrazolo[4,3-c]pyridine]	–	90
CS(=O)(=O)N1CCc2c(c(-c3ccc(Cl)c(C#Cc4ccc(NCc5ccccc5)cc4)c3)nn2CCCN2CCOCC2)C1 [Example 321, 4-({2-Chloro-5-[5-(methylsulfonyl)-1-(3-morpholin-4-ylpropyl)-4,5,6,7-tetrahydro-1H-pyrazolo[4,3-c]pyridin-3-yl]phenyl}ethynyl)-N-(phenylmethyl)aniline]	–	4650
CS(=O)(=O)N1CCc2c(c(-c3ccc(Cl)c(C#Cc4ccc(NCC#N)cc4)c3)nn2CCCN2CCOCC2)C1 [Example 322, {[4-({2-Chloro-5-[5-(methylsulfonyl)-1-(3-morpholin-4-ylpropyl)-4,5,6,7-tetrahydro-1H-pyrazolo[4,3-c]pyridin-3-yl]phenyl}ethynyl)phenyl]amino}acetonitrile]	–	730
CS(=O)(=O)N1CCc2c(c(-c3ccc(Cl)c(C#Cc4ccc(CNC5CC5)cc4)c3)nn2CCCN2CCOCC2)C1 [Example 323, N-{[4-({2-Chloro-5-[5-(methylsulfonyl)-1-(3-morpholin-4-ylpropyl)-4,5,6,7-tetrahydro-1H-pyrazolo[4,3-c]pyridin-3-yl]phenyl}ethynyl)phenyl]methyl}cyclopropanamine]	–	750
CS(=O)(=O)N1CCc2c(c(-c3ccc(Cl)c(C#Cc4ccc(CNC5CCC5)cc4)c3)nn2CCCN2CCOCC2)C1 [Example 324, N-{[4-({2-Chloro-5-[5-(methylsulfonyl)-1-(3-morpholin-4-ylpropyl)-4,5,6,7-tetrahydro-1H-pyrazolo[4,3-c]pyridin-3-yl]phenyl}ethynyl)phenyl]methyl}cyclobutanamine]	–	1340
